Results: patent publication US20220177456A1, “COMPOUNDS, COMPOSITIONS AND METHODS” (Denali Therapeutics Inc., priority 2019, published 2022)

The compounds below were run on ISR pathway (ATF4 translation), H4 ATF4-NLuc (clone 17) cell line (assay: ATF4 Nano Luciferase reporter integrated stress response (ISR) assay in H4 ATF4-NLuc cells). Conditions: human H4 neuroglioma ATF4-NLuc cells; compound 30 minutes, then 50 μm sodium arsenite for 6 hours; luminescence readout.
Type: cell-based
Source text: Cellular stress leads to activation of the integrated stress response pathway through one of four eukaryotic initiation factor 2α kinases and halts global translation, while allowing for the translation of select transcripts like ATF4 (activating transcription factor 4) that are important for the response to cellular stress. During normal conditions, small open reading frames (ORFs) in the 5′ UTR of ATF4 occupy the ribosome and prevent translation of the coding sequence of ATF4. During stress conditions however, the ribosome scans past these upstream ORFs and preferentially begins translation at the coding sequence of ATF4. In this way, the translation, and thus protein level of ATF4 is a readout of ISR pathway activation. Thus, a fusion of the uORFs and the beginning of the coding sequence of ATF to a common cellular reporter like nano-luciferase allows for a sensitive and high-throughput readout of ISR pathway activity.
Compounds as provided herein were tested in the following assay. The ATF4 Nano Luciferase reporter was constructed by fusing the human full length 5′ untranslated region (5′-UTR) and a small portion of the coding sequence of the ATF4 gene upstream of the Nano Luciferase (NLuc) coding sequence lacking it's start codon. Specifically, nucleotides +1 through +364 (relative to the transcriptional start site) of ATF4 transcript variant 2 (NCBI NM_182810.2) flanked 5′ by EcoRI and 3′ by BamHI restriction enzyme sites were synthesized and cloned into the EcoRI/BamHI cloning sites of pLVX-EF1a-IRES-Puro lentivirus vector (Clontech). Lentiviral particles were produced with Lenti-X single shots (VSV-G, Clontech) according to the manufacturer's instructions and used to transduce a human H4 neuroglioma cell line (ATCC HT1B-148). H4 cells were selected with 1.25 μg/mL Puromycin, and clonal cell lines generated by limiting dilution. We utilized this cell line to generate an integrated stress response (ISR) assay to evaluate the activity of ISR pathway inhibitors via luminescence readout. The H4 ATF4-NLuc (clone 17) cell line is plated at a density of […] cells in 96-well or 384-well respectively in DMEM +10% fetal bovine serum. 24-hours later test compounds diluted in dimethyl sulfoxide (DMSO) are added for 30 minutes at 37° C., followed by ISR pathway activation with 50 μm sodium arsenite aqueous solution for 6 additional hours. Nano Glo luciferase reagent (N1150, Promega) is added according to manufacturer instructions and the luminescence signal (corresponding to the level of ATF4 translation and thus ISR pathway activation) is read with a standard plate reader with luminescence detection capabilities.
In the tables below, activity of the tested compounds is provided, and in Table 3 as follows: +++=0.003 μM<IC50<1 μM; ++=IC50 1-10 μM; +=IC50>10 μM.

IC50, 3 to 1000 nM:
O=C(COc1ccc(C(F)(F)F)cc1)N[C@@H]1CC[C@@H](C(=O)N[C@H]2C[C@@H](COC(F)(F)F)C2)OC1 [Example 13, (2S,5R)-N-[3-cis-(trifluoromethoxymethyl)cyclobutyl]-5-[[2-[4-(trifluoromethyl)phenoxy]acetyl]amino]tetrahydropyran-2-carboxamide]
O=C(COc1ccc(Cl)cc1)N[C@@H]1CC[C@@H](C(=O)NCc2cccc(C(F)(F)F)c2)OC1 [Example 14, (2S,5R)-5-[[2-(4-chlorophenoxy)acetyl]amino]-N-[[3-(trifluoromethyl)phenyl]methyl] tetrahydropyran-2-carboxamide]
O=C(COc1ccc(Cl)cc1)N[C@@H]1CC[C@@H](C(=O)NCc2cccc(Cl)c2)OC1 [Example 15, (2S,5R)-5-[[2-(4-chlorophenoxy)acetyl]amino]-N-[(3-chlorophenyl)methyl] tetrahydropyran-2-carboxamide]
O=C(COc1ccc(Cl)cc1)N[C@@H]1CC[C@@H](C(=O)NCc2ccc(C(F)(F)F)nc2)OC1 [Example 16, (2S,5R)-5-[[2-(4-chlorophenoxy)acetyl]amino]-N-[[6-(trifluoromethyl)-3-pyridyl]methyl] tetrahydropyran-2-carboxamide]
C[C@@H](NC(=O)[C@@H]1CC[C@@H](NC(=O)COc2ccc(Cl)cc2)CO1)c1ccc(Cl)cc1 [Example 17, (2S,5R)-5-[[2-(4-chlorophenoxy)acetyl]amino]-N-[(1R)-1-(4-chlorophenyl)ethyl] tetrahydropyran-2-carboxamide]
C[C@H](NC(=O)[C@@H]1CC[C@@H](NC(=O)COc2ccc(Cl)cc2)CO1)c1ccc(Cl)cc1 [Example 18, (2S,5R)-5-[[2-(4-chlorophenoxy)acetyl]amino]-N-[(1S)-1-(4-chlorophenyl)ethyl] tetrahydropyran-2-carboxamide]
CN(Cc1ccc(Cl)cc1)C(=O)[C@@H]1CC[C@@H](NC(=O)COc2ccc(Cl)cc2)CO1 [Example 19, (2S,5R)-5-[[2-(4-chlorophenoxy)acetyl]amino]-N-[(4-chlorophenyl)methyl]-N-methyl-tetrahydropyran-2-carboxamide]
O=C(COc1ccc(Cl)cc1)N[C@@H]1CC[C@@H](C(=O)NCc2ccc(C(F)(F)F)cc2)OC1 [Example 20, (2S,5R)-5-[[2-(4-chlorophenoxy)acetyl]amino]-N-[[4-(trifluoromethyl)phenyl]methyl] tetrahydropyran-2-carboxamide]
O=C(COc1ccc(Cl)cc1)N[C@@H]1CC[C@@H](C(=O)N2CCc3ccc(Cl)cc3C2)OC1 [Example 21, 2-(4-chlorophenoxy)-N-[(3R,6S)-6-(7-chloro-3,4-dihydro-1H-isoquinoline-2-carbonyl)tetrahydropyran-3-yl]acetamide]
O=C(COc1ccc(Cl)cc1)N[C@@H]1CC[C@@H](C(=O)N2CCc3cc(Cl)ccc3C2)OC1 [Example 22, 2-(4-chlorophenoxy)-N-[(3R,6S)-6-(6-chloro-3,4-dihydro-1H-isoquinoline-2-carbonyl)tetrahydropyran-3-yl]acetamide]
O=C(NCC1CC(OC(F)(F)F)C1)[C@@H]1CC[C@@H](n2cnc(-c3ccc(Cl)c(F)c3)c2)CO1 (stereo partly drawn) [Example 23, (2S,5R)-5-[4-(4-chloro-3-fluoro-phenyl)imidazol-1-yl]-N-[[3-(trifluoromethoxy)cyclobutyl]methyl] tetrahydropyran-2-carboxamide]
O=C(N[C@H]1C[C@@H](COC(F)(F)F)C1)[C@@H]1CC[C@@H](n2cnc(-c3ccc(Cl)c(F)c3)c2)CO1 [Example 24, (2S,5R)-5-[4-(4-chloro-3-fluoro-phenyl)imidazol-1-yl]-N-[3-cis-(trifluoromethoxymethyl)cyclobutyl] tetrahydropyran-2-carboxamide]
O=C(N[C@H]1C[C@@H](OC(F)(F)F)C1)[C@@H]1CC[C@@H](n2cnc(-c3ccc(Cl)c(F)c3)c2)CO1 [Example 25, (2S,5R)-5-[4-(4-chloro-3-fluoro-phenyl)imidazol-1-yl]-N-[3-cis-(trifluoromethoxy)cyclobutyl] tetrahydropyran-2-carboxamide]
O=C(NC[C@H]1C[C@@H](OC(F)(F)F)C1)[C@@H]1CC[C@@H](n2cnc(-c3ccc(Cl)c(F)c3)c2)CO1 [Example 26, (2S,5R)-5-[4-(4-chloro-3-fluoro-phenyl)imidazol-1-yl]-N-[[3-cis-(trifluoromethoxy)cyclobutyl]methyl] tetrahydropyran-2-carboxamide]
O=C(COc1ccc(Cl)cc1)N[C@@H]1CC[C@@H](C(=O)NCc2ccc(C(F)(F)F)cn2)OC1 [Example 27, (2S,5R)-5-[[2-(4-chlorophenoxy)acetyl]amino]-N-[[5-(trifluoromethyl)-2-pyridyl]methyl] tetrahydropyran-2-carboxamide]
O=C(COc1ccc(C(F)(F)F)cc1)N[C@@H]1CC[C@@H](C(=O)Nc2ccc3cc(C(F)(F)F)ccc3n2)OC1 [Example 28, (2S,5R)-5-[[2-[4-(trifluoromethyl)phenoxy]acetyl]amino]-N-[6-(trifluoromethyl)-2-quinolyl]tetrahydropyran-2-carboxamide]
O=C(COc1ccc(Cl)cc1)N[C@@H]1CC[C@@H](C(=O)NCc2ccc(Cl)cc2)OC1 [Example 29, (2S,5R)-5-[[2-(4-chlorophenoxy)acetyl]amino]-N-[(4-chlorophenyl)methyl] tetrahydropyran-2-carboxamide]
O=C(COc1ccc(Cl)c(F)c1)N[C@@H]1CC[C@@H](C(=O)N2CCC(OC(F)(F)F)CC2)OC1 [Example 30, 2-(4-chloro-3-fluoro-phenoxy)-N-[(3R,6S)-6-[4-(trifluoromethoxy)piperidine-1-carbonyl]tetrahydropyran-3-yl]acetamide]
O=C(COc1ccc(Cl)c(F)c1)N[C@@H]1CC[C@@H](C(=O)N2CCC(OC(F)(F)F)C2)OC1 (stereo partly drawn) [Example 31, 2-(4-chloro-3-fluoro-phenoxy)-N-[(3R,6S)-6-[3-(trifluoromethoxy)pyrrolidine-1-carbonyl]tetrahydropyran-3-yl]acetamide]
